What was measured:
[1] = Examination of salts of Compound 17 for crystallization; format: physicochemical; details: for State: salt of Compound 17 with the stated counter base, concentrated from methanol, triturated with various solvents; for State of the salt: salts of Compound 17 with the named bases
Description: Then, the mixture was concentrated under reduced pressure and trituration was conducted with using various solvents. For the examination, ethyl acetate, methyl t-butyl ether, n-hexane and the like were used as the solvents.

[2] = Chemical stability test (residual percentage by HPLC after storage); format: physicochemical; details: for Residual percentage (%): relative to sample stored at −20° C., HPLC; for residual percentages: during storage under each condition
Description: With respect to Compound 17 and Crystalline forms A, B and C of Compound 18, chemical stability test was conducted according to the method and the condition below.
In a laboratory tube, approximately 1.5 to 3 mg of a test compound was weighed and stored under the condition below.
After storing, the residual percentage (%) of the sample stored under each condition relative to the area percentage of the main component in the sample stored at −20° C. was calculated with using HPLC. In addition, the appearance was observed by eye and compared with the sample stored at −20° C.
80° C.: One week, two weeks and one month
60° C.: Two weeks and one month
40° C.: Two weeks, one month, two months, four months and six months
25° C.-60% RH: Two months, four months and six months
5° C.: Two months, four months and six months
40° C.-75% RH (opened): Two weeks, one month, two months, four months and six months
25° C.-40% RH (opened): Two weeks, one month and two months
25° C.-60% RH (opened): Two weeks, one month and two months
25° C.-75% RH (opened): Two weeks, one month and two months
The samples to be compared with the samples above were stored at −20° C.
A sample to be evaluated was dissolved in a mixed solution of acetonitrile/20 mmol/L KH2PO4 aq. (pH3.0 with H3PO4) (1/1) and a solution of 1.0 mg/mL (concentration as a salt) was prepared.
Detector: Ultraviolet absorptiometer (measurement wavelength: 215 nm)
Column: CHIRALCEL OD-3R (150×4.6 mm, S-5 μm)
Column temperature: 25° C.
Mobile phase: Solution A: 20 mmol/L KH2PO4 aq. (pH3.0 with H3PO4), Solution B: CH3CN
Area measurement range: 35 minutes

[3] = tested on: bladder detrusor; test: Evaluation of the activity to contract the bladder detrusor (bladder strip specimens, Magnus system); format: tissue-based; details: rat bladder strip; for Change of tension (%): contraction evoked by potassium chloride solution (7.5 mmol/L) set at 100%
Description: Rats were anesthetized with pentobarbital, followed by abdominal incision to remove the bladders and the urethras. The bladder bodies were cut in the longitudinal direction to prepare strip specimens with a size of about 10×3 mm. Additionally, each of the urethras was also cut in the longitudinal direction to prepare specimens with a size of about 10×3 mm. The prepared specimens were suspended in Krebs buffer (37° C., 5 mL), which was aerated with a mixed gas of 95% O2 and 5% CO2. The tension values of the specimens were measured using a Magnus system equipped with an isometric transducer and an amplifier, and the measured values were recorded on a computer via a data collection system. The specimens were suspended with a load of about 0.5 g. More than 1 hr later, potassium chloride (100 mmol/L) was added and the maximal contraction response was observed. After washing with Krebs buffer, the specimens were suspended with a load of about 0.5 g for stabilization. A potassium chloride solution (7.5 mmol/L) was added to induce the contraction of the specimens. After the contraction-inducing response was stabilized, the test compound was added in a cumulative manner and the response was observed before and after the treatment with the drug. The change of tension (%) of a test compound of each concentration was calculated with setting the contraction evoked by the addition of potassium chloride solution (mg) at 100%.

Row | State [1] | State of the salt [1] | Molecule | further results
1 | Oily | – | CC(C)(C)N [t-Butylamine] | –
2 | Oily | – | CCNCCCCO | –
3 | Oily | – | CC1CCNCC1 [drawing 23] | –
4 | Oily | amorphous oily substances | OCCNCCO [Diethanolamine] | –
5 | Oily | – | C1CCCNCC1 | –
6 | – | – | C[C@@](O)(C/C=C/[C@H]1CCC(=O)[C@@H]1CCSc1nc(C(=O)O)cs1)CCC(F)=C(F)F [Crystalline Form B, piperidin-4-ylmethanol 2-[(2-{(1R,5R)-2-oxo-5-[(1E,4S)-7,8,8-trifluoro-4-hydroxy-4-methyl-1,7-octadien-1-yl]cyclopentyl}ethyl)thio]-1,3-thiazole-4-carboxylate] | Residual percentage (%) ([2]; 40° C.-75% RH-one month): 92.6%; Residual percentage (%) ([2]; 40° C.-one month): 99.6%; Residual percentage (%) ([2]; 60° C.-one month): 98.3%
7 | Oily | – | CNCCNC | –
8 | Oily | – | c1ccc2c(c1)CNC2 | –
9 | – | amorphous oily substances | CC1CCNCC1 [4-methylpiperidine] | –
10 | – | amorphous oily substances | OC1CCNCC1 [4-hydroxypiperidine] | –
11 | – | amorphous oily substances | OCCC1CCNCC1 [4-piperidineethanol] | –
12 | Crystalline solid | – | Piperidin-4-ylmethanol 2-[(2-{(1R,5R)-2-oxo-5-[(1E,4S)-7,8,8-trifluoro-4-hydroxy-4-methyl-1,7-octadien-1-yl]cyclopentyl}ethyl)thio]-1,3-thiazole-4-carboxylate [Compound 18] | residual percentages [2]: ≥ 90%; Change of tension (%) ([3]; 1 nmol/L): 5.97%; Change of tension (%) ([3]; 10 nmol/L): 54.35%; Change of tension (%) ([3]; 100 nmol/L): 177.91%; Change of tension (%) ([3]; 1 μmol/L): 245.91%; Effect on the bladder detrusor (in words) [3]: contracted the bladder detrusor
13 | – | – | C[C@@](O)(C/C=C/[C@H]1CCC(=O)[C@@H]1CCSc1nc(C(=O)O)cs1)CCC(F)=C(F)F [Compound 17, 2-[(2-{(1R,5R)-2-oxo-5-[(1E,4S)-7,8,8-trifluoro-4-hydroxy-4-methyl-1,7-octadien-1-yl]cyclopentyl}ethyl)thio]-1,3-thiazole-4-carboxylic acid] | Residual percentage (%) ([2]; 40° C.-75% RH-one month): 58.6%; Residual percentage (%) ([2]; 40° C.-one month): 76.0%; Residual percentage (%) ([2]; 60° C.-one month): 60.4%; residual percentages [2]: decreased
14 | Oily | – | OCCC1CCNCC1 [drawing 22] | –
15 | Oily | – | OC1CCNCC1 [drawing 24] | –
16 | Oily | – | CNCCCO | –

Row | State [1] | State of the salt [1] | Molecule | further results
17 | Oily | amorphous oily substances | [Mg] [Magnesium] | –
18 | Oily | amorphous oily substances | [K+] [Potassium] | –
19 | – | – | C[C@@](O)(C/C=C/[C@H]1CCC(=O)[C@@H]1CCSc1nc(C(=O)O)cs1)CCC(F)=C(F)F [Crystalline Form A, piperidin-4-ylmethanol 2-[(2-{(1R,5R)-2-oxo-5-[(1E,4S)-7,8,8-trifluoro-4-hydroxy-4-methyl-1,7-octadien-1-yl]cyclopentyl}ethyl)thio]-1,3-thiazole-4-carboxylate] | Residual percentage (%) ([2]; 40° C.-75% RH-one month): 92.0%; Residual percentage (%) ([2]; 40° C.-one month): 99.6%; Residual percentage (%) ([2]; 60° C.-one month): 98.6%
20 | Oily | – | COC1CCNCC1 | –
21 | Oily | – | OC[C@@H]1CCCN1 | –
22 | Oily | – | c1ccc(CNCc2ccccc2)cc1 | –
23 | – | – | C[C@@](O)(C/C=C/[C@H]1CCC(=O)[C@@H]1CCSc1nc(C(=O)O)cs1)CCC(F)=C(F)F [Crystalline Form C, piperidin-4-ylmethanol 2-[(2-{(1R,5R)-2-oxo-5-[(1E,4S)-7,8,8-trifluoro-4-hydroxy-4-methyl-1,7-octadien-1-yl]cyclopentyl}ethyl)thio]-1,3-thiazole-4-carboxylate] | Residual percentage (%) ([2]; 40° C.-75% RH-one month): 97.5%; Residual percentage (%) ([2]; 40° C.-one month): 99.4%; Residual percentage (%) ([2]; 60° C.-one month): 97.9%
24 | Oily | – | CNCCOC | –
25 | Oily | amorphous oily substances | Sodium | –
26 | Oily | – | CCc1ncc[nH]1 | –
27 | Oily | amorphous oily substances | [Ca] [Calcium] | –
28 | Oily | – | CCCCNCCC | –
29 | Oily | – | CN1CCCCC1 | –
30 | Oily | amorphous oily substances | CCN(CC)CC [Triethylamine] | –
31 | Oily | – | C=CCNCC=C | –

Row | Molecule | State [1] | State of the salt [1] | further results
32 | C#CCN(C)C | Oily | – | –
33 | C1=CCNCC1 | Oily | – | –
34 | Lysine | Oily | amorphous oily substances | –
35 | Arginine | Oily | amorphous oily substances | –
36 | C1CCC(NC2CCCCC2)CC1 [Dicyclohexylamine] | Oily | amorphous oily substances | –

From patent publication US9643940B2, “Amine salt and crystals thereof” (ONO PHARMACEUTICAL CO., LTD., priority 2012, dated 2017)
